Target: T1, mMR (Mus musculus, UniProt Q8VII8)
T1 construct: the level of expression of the endogenous mMR observed in the control males; endogenous in cells; host or cells: whole mice in vivo: double transgenic alphaMHC-tTA/MR animals, with cardiac mMR mRNA lowered by about 50% by the antisense, and wild or single transgenic controls
T1 sequence (Q8VII8 1-978): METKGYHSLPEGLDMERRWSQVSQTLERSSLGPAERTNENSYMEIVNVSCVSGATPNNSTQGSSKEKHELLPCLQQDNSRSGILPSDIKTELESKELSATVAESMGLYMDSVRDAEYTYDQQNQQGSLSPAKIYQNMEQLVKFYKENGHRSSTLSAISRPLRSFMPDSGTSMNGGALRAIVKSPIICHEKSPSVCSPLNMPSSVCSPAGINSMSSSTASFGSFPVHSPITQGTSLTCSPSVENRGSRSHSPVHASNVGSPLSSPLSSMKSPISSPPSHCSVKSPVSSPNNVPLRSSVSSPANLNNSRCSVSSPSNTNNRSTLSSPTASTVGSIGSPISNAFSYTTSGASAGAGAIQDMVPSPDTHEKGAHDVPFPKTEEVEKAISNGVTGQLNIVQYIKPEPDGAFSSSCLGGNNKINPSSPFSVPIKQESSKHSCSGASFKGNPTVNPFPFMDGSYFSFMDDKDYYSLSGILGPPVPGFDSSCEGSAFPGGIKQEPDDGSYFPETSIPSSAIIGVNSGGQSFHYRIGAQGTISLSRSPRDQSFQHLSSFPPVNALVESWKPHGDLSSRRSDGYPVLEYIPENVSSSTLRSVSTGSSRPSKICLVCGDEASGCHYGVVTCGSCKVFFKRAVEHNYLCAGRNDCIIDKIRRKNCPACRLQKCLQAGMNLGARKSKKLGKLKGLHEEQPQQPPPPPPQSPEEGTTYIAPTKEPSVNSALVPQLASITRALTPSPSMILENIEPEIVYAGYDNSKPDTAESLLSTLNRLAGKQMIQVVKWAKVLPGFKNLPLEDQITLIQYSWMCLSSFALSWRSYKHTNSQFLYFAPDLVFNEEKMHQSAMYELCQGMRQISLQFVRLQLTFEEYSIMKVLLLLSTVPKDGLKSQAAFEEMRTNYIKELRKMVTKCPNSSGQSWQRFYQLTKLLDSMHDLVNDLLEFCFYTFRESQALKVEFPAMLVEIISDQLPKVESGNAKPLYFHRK
Experiment: Administration of spironolactone to control animals (wild or single transgenic)
Assay type: in vivo, mice
Settings: 30 mg/kg/day

CC(=O)S[C@@H]1CC2=CC(=O)CC[C@]2(C)[C@H]2CC[C@@]3(C)[C@@H](CC[C@@]34CCC(=O)O4)[C@H]12 [spironolactone]
functional or structural alteration of the heart: does not produce any functional or structural alteration
